US6825209B2, “Compounds having unique CB1 receptor binding selectivity and methods for their production and use” (Research Triangle Institute, priority 2002, dated 2004)
Like-named read-outs stand apart in the source and are kept apart here.

Tests used:
CB1 receptor = biological target: T1, CB1 receptor (Rattus norvegicus, UniProt P20272); assay: Radioligand displacement in whole rat brain (CB1) membrane preparations; assay type: binding; conditions: Table 4, parallel synthesis analogs; for Ki: n = 1, concentration assumes 100% yield; for Max. Disp. %, 3H-CP55940 / Max. Disp. %, 3H-SR141716A / Max. Disp. %, 3H-WIN55212-2: n = 1
T1 construct: Whole rat brains or dissected regions from live CD rats; tissue Charles River or Pel-Freez Biologicals; host or cells: whole rat brain (CD rats), P2 membrane
Text: CB1 receptor affinity in rat brain.
Methods—membrane preparation from brain. The methods for tissue preparation are essentially those described by Devane et al. (1988) as modified by Compton et al. (1993) and later by Thomas et al. (1998). Whole rat brains or dissected regions from live CD rats from Charles River or Pel-Freez Biologicals (Rogers, Ark.), or human brain sections obtained from the National Disease Research Institute, were allowed to thaw to room temperature on ice. Both whole brain and dissected brain regions were used because different brain regions may express different cannabinoid receptor subtypes (Skaper et al., 1996; Thomas et al., 1998). The tissue was homogenized with a Kontes Potter-Elvehjem glass-Teflon grinding system (Fisher Scientific, Springfield, N.J.) in buffer 1 (320 mM sucrose, 2 mM EDTA, 5 mM MgCl2. The homogenate was centrifuged at 1600 g for 10 min. The supernatant was saved and combined with the two subsequent supernatants obtained from washing and 1600 g centrifugation of the P1 pellet. The combined supernatant fractions were then centrifuged at 39,000 g for 15 min. The P2 pellet was resuspended in 50 mL of buffer 2 (50 mM Tris.HCl, 2 mM EDTA, 5 mM MgCl2, pH 7.0), incubated at 37° C. for 10 min, then centrifuged at 23,000 g for 10 min. The P2 membrane was resuspended in 50 mL of buffer 2, incubated at 30° C. for 40 min, then centrifuged at 11,000 g for 15 min. The final wash-treated P2 pellet was resuspended in assay buffer 3 (50 mM Tris.HCl, 1 mM EDTA, 3 MM MgCl2, pH 7.4). Protein concentrations were determined by the method of Bradford (1976) using Coomassie brilliant blue dye (Bio-Rad, Richmond, Calif.) and BSA standards (bovine serum albumin, fatty acid free, Sigma Chemical Co., St. Louis, Mo.) prepared in assay buffer 3. The membrane preparation was divided into aliquots and stored at −80° C. For use in the binding assay, an aliquot of frozen membranes was thawed on ice and diluted to a concentration of ca. 0.2 mg/mL in assay buffer.
Methods—binding assay in brain membrane preparation. The methods for ligand binding are essentially those described by Devane et al. (1988) with the exception that we used a filtration assay. […] All cannabinoid analogs were prepared by suspension in buffer A from a 1-5 mg/mL ethanolic stock. Following incubation at 30° C. for 1 h, binding was terminated by vacuum filtration through pretreated filters in a 96-well sampling manifold (Millipore, Bedford, Mass.). Reaction vessels were washed at least 3 times with 1 mL of ice cold buffer B (50 mM Tris.HCl, 1 mg/mL BSA). The filter plates were air-dried and sealed on the bottom. Liquid scintillant was added to the wells and the top sealed. After incubating the plates in cocktail for at least 2 h, the radioactivity present was determined by liquid scintillation spectrometry. Assays were done in duplicate, and results represent the combined data of three to six independent experiments. All assays were performed in polypropylene test tubes. The GF/C glassfiber filter plates (Packard, Meriden, Conn.) were pretreated in buffer B for at least 1 h.
(§1) Data analysis. Saturation and displacement data were analyzed by unweighted nonlinear regression of receptor binding data. For displacement studies, curve-fitting and IC50 calculation were done with GraphPad Prism (GraphPad Software, Inc., San Diego, Calif.), which fits the data to one and two-site models and compares the two fits statistically. A similar approach was used for the analysis of isotherm data for calculation of Kd's. A two-site fit was accepted only if it was statistically significant (p<0.05) and the following results were not observed:
(§2) IC50 values were then converted to Ki values by reported methods (Cheng and Prusoff, 1973). The statistical evaluation of curve-fitting data allowed for a non-arbitrary conclusion based on the displacement data.

human CB1 receptor = biological target: T2, human CB1 receptor (Homo sapiens, UniProt P21554); assay: Radioligand displacement in human CB1 receptor-transfected cells (HEK-293); assay type: binding
T2 construct: expressed in transfected cells; host or cells: HEK-293
Protocol: Human CB1 receptor affinity. The alkyl amide analogs of the present invention were examined using transfected cell lines expressing the human CB1 receptor (Table 3).
Methods—binding assay in transfected cell lines. The methods used for performing binding assays in transfected cells expressing human CB1 or CB2 receptors are those used above. The CB1 receptor involved a HEK-293 expression system whereas the CB2 receptor was expressed in CHO-K1 cells. […] The incubations and separations were then performed as described above for rat brain membrane preparations.
as §1, §2

[1] = displacement of 3H-CP55940, whole rat brain, 3H-CP55940
[2] = displacement of 3H-SR141716A, whole rat brain, 3H-SR141716A
[3] = displacement of 3H-WIN55212-2, whole rat brain, 3H-WIN55212-2
[4] = displacement of 3H-CP55940, human CB1 transfected cells, 3H-CP55940, Table 5, parallel synthesis analogs, concentration assumes 100% yield
[5] = displacement of 3H-SR141716A, human CB1 transfected cells, 3H-SR141716A, Table 5, parallel synthesis analogs, concentration assumes 100% yield
[6] = displacement of 3H-WIN55212-2, human CB1 transfected cells, 3H-WIN55212-2, Table 5, parallel synthesis analogs, concentration assumes 100% yield
[7] = human CB1 transfected cells, 3H-CP55940, Table 5, parallel synthesis analogs
[8] = human CB1 transfected cells, 3H-SR141716A, Table 5, parallel synthesis analogs
[9] = human CB1 transfected cells, 3H-WIN55212-2, Table 5, parallel synthesis analogs

T2 sequence (P21554 whole entry): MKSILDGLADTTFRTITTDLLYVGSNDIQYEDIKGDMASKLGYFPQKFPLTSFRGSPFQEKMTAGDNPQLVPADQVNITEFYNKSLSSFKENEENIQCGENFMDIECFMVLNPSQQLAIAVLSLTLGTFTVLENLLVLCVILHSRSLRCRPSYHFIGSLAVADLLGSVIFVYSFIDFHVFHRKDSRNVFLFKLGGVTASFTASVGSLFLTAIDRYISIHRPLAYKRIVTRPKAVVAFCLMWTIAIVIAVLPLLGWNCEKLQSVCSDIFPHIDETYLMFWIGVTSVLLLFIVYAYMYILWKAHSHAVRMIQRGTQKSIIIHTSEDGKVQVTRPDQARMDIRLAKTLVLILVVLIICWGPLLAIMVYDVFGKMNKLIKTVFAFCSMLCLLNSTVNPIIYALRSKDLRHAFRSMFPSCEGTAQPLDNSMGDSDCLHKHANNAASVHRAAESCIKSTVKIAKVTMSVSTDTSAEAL
T1 sequence (P20272 whole entry): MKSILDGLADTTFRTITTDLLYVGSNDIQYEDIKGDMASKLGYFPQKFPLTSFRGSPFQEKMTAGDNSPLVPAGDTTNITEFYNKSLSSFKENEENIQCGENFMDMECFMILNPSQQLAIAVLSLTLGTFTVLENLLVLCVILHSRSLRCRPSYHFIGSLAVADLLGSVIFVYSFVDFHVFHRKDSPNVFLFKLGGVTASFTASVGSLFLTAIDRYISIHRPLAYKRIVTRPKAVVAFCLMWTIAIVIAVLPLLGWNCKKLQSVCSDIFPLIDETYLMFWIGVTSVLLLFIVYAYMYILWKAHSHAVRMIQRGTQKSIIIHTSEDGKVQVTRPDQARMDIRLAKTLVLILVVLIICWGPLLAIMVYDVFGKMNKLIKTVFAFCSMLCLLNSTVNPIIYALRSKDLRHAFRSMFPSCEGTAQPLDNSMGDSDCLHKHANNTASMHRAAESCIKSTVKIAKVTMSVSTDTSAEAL

SMILES	Ki (CB1 receptor; [1]) [µM]	Ki (CB1 receptor; [2]) [µM]	Ki (CB1 receptor; [3]) [µM]	Max. Disp. %, 3H-CP55940 (CB1 receptor; whole rat brain, 3H-CP55940) [%]	Max. Disp. %, 3H-SR141716A (CB1 receptor; whole rat brain, 3H-SR141716A) [%]	Max. Disp. %, 3H-WIN55212-2 (CB1 receptor; whole rat brain, 3H-WIN55212-2) [%]	Max. Disp. %, 3H-CP55940 (human CB1 receptor) [%]	Max. Disp. %, 3H-SR141716A (human CB1 receptor) [%]	Max. Disp. %, 3H-WIN55212-2 (human CB1 receptor) [%]	Ki (human CB1 receptor; displacement of 3H-CP55940) [µM]	Ki (human CB1 receptor; displacement of 3H-SR141716A) [µM]	Ki (human CB1 receptor; displacement of 3H-WIN55212-2) [µM]	Ki (human CB1 receptor; [4]) [µM]	Ki (human CB1 receptor; [5]) [µM]	Ki (human CB1 receptor; [6]) [µM]	Max. Disp. %, 3H-CP55940 (human CB1 receptor; [7]) [%]	Max. Disp. %, 3H-SR141716A (human CB1 receptor; [8]) [%]	Max. Disp. %, 3H-WIN55212-2 (human CB1 receptor; [9]) [%]
CCCCCC(C)NC(=O)c1nn(-c2ccc(Cl)cc2Cl)c(-c2ccc(Cl)cc2)c1C (stereo not shown) [AKS-10262-1]	0.0107	0.0026	0.00184	98.2	96.5	89.0	80.7	95.6	100	0.0119	0.00202	0.0546						
CC(C)=CCC/C(C)=C/CNC(=O)c1nn(-c2ccc(Cl)cc2Cl)c(-c2ccc(Cl)cc2)c1C [AKS-10262-2]	0.0481	0.0201	0.0405	84.2	95.7	89.0							0.0268	0.0068	0.211	84.2	95.7	78.3
CCCCCCCCCC(C)NC(=O)c1nn(-c2ccc(Cl)cc2Cl)c(-c2ccc(Cl)cc2)c1C (stereo not shown) [AKS-10262-3]	0.0271	0.0097	0.0223	83.7	97.3	82.4							0.0411	0.007	0.0222	77.7	90.0	76.1
CCCCCCC(C)NC(=O)c1nn(-c2ccc(Cl)cc2Cl)c(-c2ccc(Cl)cc2)c1C (stereo not shown) [AKS-10262-4]	0.0262	0.0108	0.0058	83.9	91.3	53.7	79.5	91.5	0.0	0.0263	0.0028							
CCCCCC(CC)NC(=O)c1nn(-c2ccc(Cl)cc2Cl)c(-c2ccc(Cl)cc2)c1C (stereo not shown) [AKS-10262-5]	0.0196	0.0086	0.0258	89.5	95.7	85.1							0.0096	0.0038	0.0786	91.4	95.9	100
CCC(C)CC(C)NC(=O)c1nn(-c2ccc(Cl)cc2Cl)c(-c2ccc(Cl)cc2)c1C (stereo not shown) [AKS-10262-6]	0.0096	0.0023	0.0137	91.4	96.3	89.9							0.0094	0.0022	0.0239	86.5	100	78.7
Cc1c(C(=O)NC(C)CCCC(C)C)nn(-c2ccc(Cl)cc2Cl)c1-c1ccc(Cl)cc1 (stereo not shown) [AKS-10262-7]	0.00897	0.00357	0.00576	89.6	95.1	87.7	82.5	93.7	67.9	0.00739	0.0021	0.0642						
Cc1c(C(=O)NC(C)CCC(C)C)nn(-c2ccc(Cl)cc2Cl)c1-c1ccc(Cl)cc1 (stereo not shown) [AKS-10262-8]	0.00337	0.00281	0.0286	76.6	96.2	94.1							0.0132	0.00548	0.0332	76.8	93.6	91.5
Cc1c(C(=O)NCCC(c2ccccc2)c2ccccc2)nn(-c2ccc(Cl)cc2Cl)c1-c1ccc(Cl)cc1 [AKS-10262-9]	0.0199	0.00552	0.0103	90.1	96.0	81.1							0.0252	0.00328	0.0169	88.1	96.7	77.3
Cc1c(C(=O)NC(C)Cc2ccc(Cl)cc2)nn(-c2ccc(Cl)cc2Cl)c1-c1ccc(Cl)cc1 (stereo not shown) [AKS-10262-10]	0.0184	0.0027	0.0101		95.9	86.1							0.0229	0.00238	0.0702	94.8	100	65.5
COCC(C)NC(=O)c1nn(-c2ccc(Cl)cc2Cl)c(-c2ccc(Cl)cc2)c1C (stereo not shown) [AM-17]	0.0644	0.0228	0.0226	96.2	94.1	84.8							0.0398	0.0176	0.0309	86.3	98.7	96.8
Cc1c(C(=O)N2CCC(O)(c3ccccc3)CC2)nn(-c2ccc(Cl)cc2Cl)c1-c1ccc(Cl)cc1 [AM-28]	0.113	0.0412	0.0695	97.2	97.2	94.4							0.0521	0.0282	0.0569	79.6	99.2	100
